Measurements: patent US6469008B2, “(R)-hydroxynefazodone antipsychotic therapy” (Sepracor Inc., priority 1999, dated 2002)

Columns and labels:
[1] = biological target: T1, 5-HT1A receptors (Homo sapiens, UniProt P08908); assay: 5-HT1A receptor binding; design: expressed in transfected cells; host or cells: CHO cells; conditions: [3H]8-OH-DPAT, transfected CHO cell membranes; read-out: Serotonin Receptor Binding 5-HT1A (IC50)
T1 sequence (P08908 1-422): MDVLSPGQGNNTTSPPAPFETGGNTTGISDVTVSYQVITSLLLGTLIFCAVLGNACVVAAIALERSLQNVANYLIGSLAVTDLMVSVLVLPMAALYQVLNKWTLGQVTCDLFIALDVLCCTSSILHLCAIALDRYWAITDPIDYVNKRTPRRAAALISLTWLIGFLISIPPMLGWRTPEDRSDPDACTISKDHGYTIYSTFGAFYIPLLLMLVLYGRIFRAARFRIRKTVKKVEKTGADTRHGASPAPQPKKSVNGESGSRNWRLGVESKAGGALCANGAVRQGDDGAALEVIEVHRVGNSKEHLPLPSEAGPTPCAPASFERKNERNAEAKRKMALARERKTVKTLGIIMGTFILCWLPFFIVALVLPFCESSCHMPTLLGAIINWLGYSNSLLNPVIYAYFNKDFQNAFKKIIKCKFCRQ
Method: (§1) Dopamine and serotonin receptor binding assays were performed in a standard manner with the incubation of membrane preparations in an assay buffer in the presence of a known radioactively labeled specific ligand for the receptor subtypes. Nonspecific binding was determined by assessing binding in the presence of excess ligand. Specific binding was measured as the total labeled ligand bound after the nonspecific binding was subtracted. The effect of the tested agents was measured by determining the competition for the receptor binding across a concentration range. Subsequently, an IC50 was determined for the agents tested. More specific details are provided below for several of the assays performed.
Aliquots of transfected CHO cell membrane preparations corresponding to 7-15 μg protein are incubated for 60 min at 22° C. in 250 μl of 50 mM Tris-HCl buffer (pH 7.4) containing 10 mM MgSO4, 0.5 mM EDTA, 0.3 nM [^3H]8-OH-DPAT and increasing concentrations of the competing drugs. Nonspecific binding is determined in the presence of 10 μM 8-OH-DPAT. After incubation, the samples are filtered rapidly under vacuum through glass fiber filters (GF/B, Packard) and rinsed several times with ice-cold 50 mM Tris-HCl using a cell harvester (Packard). Bound radioactivity is measured with a scintillation counter (Topcount, Packard) using a liquid scintillation cocktail (Microscint 0, Packard). The reference compound for this assay is 8-OH-DPAT.

[2] = biological target: T2, Human D2 receptor (Homo sapiens, UniProt P14416); assay: Dopamine D2 receptor binding; conditions: [3H]spiperone, transfected A9L cell membranes
T2 construct: expressed in transfected cells; host or cells: A9L cells
T2 sequence (P14416 whole entry): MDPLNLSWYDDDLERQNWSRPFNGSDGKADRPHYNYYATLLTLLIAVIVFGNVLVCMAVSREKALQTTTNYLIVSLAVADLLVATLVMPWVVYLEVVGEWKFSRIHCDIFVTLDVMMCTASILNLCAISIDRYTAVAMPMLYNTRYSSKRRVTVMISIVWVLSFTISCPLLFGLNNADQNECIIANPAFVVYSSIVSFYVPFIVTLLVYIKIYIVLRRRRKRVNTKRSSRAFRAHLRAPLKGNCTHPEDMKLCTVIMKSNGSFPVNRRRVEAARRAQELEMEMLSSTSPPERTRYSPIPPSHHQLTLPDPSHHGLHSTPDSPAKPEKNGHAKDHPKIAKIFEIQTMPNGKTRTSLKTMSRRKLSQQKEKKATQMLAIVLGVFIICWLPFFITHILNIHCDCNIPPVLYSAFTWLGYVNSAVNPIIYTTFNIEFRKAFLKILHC
Method: as §1
Aliquots of transfected A9L cell membrane preparations corresponding to 20-40 μg protein are incubated for 60 min at 22° C. in 250 μl of 50 mM Tris-HCl buffer (pH 7.4) containing 120 mM NaCl, 5 mM KCl, 5 mM MgCl2, 1 mM EDTA, 0.3 nM [^3H]spiperone and increasing concentrations of the competing drugs. Nonspecific binding is determined in the presence of 10 μM (+)butaclamol. After incubation, the samples are filtered rapidly under vacuum through glass fiber filters (GF/B, Packard) and rinsed several times with ice-cold 50 mM Tris-HCl using a cell harvester (Packard). Bound radioactivity is measured with a scintillation counter (Topcount, Packard) using a liquid scintillation cocktail (Microscint 0, Packard). The reference compound for this assay is (+)butaclamol.

[3] = cited from earlier work
[4] = tested on: dopaminergic receptors; conditions: in vitro binding studies; cited from earlier work
[5] = biological target: T1, 5-HT1A receptors; conditions: in vitro binding studies; cited from earlier work
[6] = tested on: alpha1-adrenergic receptors; conditions: cited from earlier work
[7] = biological target: T3, 5-HT1B (Homo sapiens, UniProt P28222); assay: 5-HT1B receptor binding; conditions: read-out: Serotonin Receptor Binding 5-HT1B (IC50)
T3 construct: host or cells: membrane preparations
T3 sequence (P28222 whole entry, species assumed): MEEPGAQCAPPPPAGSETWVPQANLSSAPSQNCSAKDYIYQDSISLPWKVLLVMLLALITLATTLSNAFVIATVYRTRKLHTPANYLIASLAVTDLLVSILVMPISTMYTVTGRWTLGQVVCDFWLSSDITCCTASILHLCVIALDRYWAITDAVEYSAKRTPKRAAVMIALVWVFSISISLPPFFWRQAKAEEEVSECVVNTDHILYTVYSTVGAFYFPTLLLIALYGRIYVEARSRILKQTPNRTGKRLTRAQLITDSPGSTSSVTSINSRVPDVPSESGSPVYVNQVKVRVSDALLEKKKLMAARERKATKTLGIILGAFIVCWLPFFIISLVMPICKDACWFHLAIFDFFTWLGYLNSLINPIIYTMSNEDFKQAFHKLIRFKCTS
Method: as §1

[8] = tested on: alpha2 adrenergic receptors; conditions: in vitro binding studies; cited from earlier work
[9] = biological target: T4, 5-HT1D (Homo sapiens, UniProt P28221); assay: 5-HT1D receptor binding; conditions: read-out: Serotonin Receptor Binding 5-HT1D (IC50)
T4 construct: host or cells: membrane preparations
T4 sequence (P28221 whole entry, species assumed): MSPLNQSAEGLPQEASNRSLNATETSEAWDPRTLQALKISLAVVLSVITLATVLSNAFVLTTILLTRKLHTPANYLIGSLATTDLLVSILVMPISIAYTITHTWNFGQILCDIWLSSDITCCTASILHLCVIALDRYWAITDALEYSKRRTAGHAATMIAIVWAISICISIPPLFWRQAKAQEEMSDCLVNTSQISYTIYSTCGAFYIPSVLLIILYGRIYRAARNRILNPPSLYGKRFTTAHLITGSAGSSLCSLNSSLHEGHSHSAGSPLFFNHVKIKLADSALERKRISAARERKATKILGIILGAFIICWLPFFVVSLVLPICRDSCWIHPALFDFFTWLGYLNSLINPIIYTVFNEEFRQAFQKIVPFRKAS
Method: as §1

[10] = tested on: cholinergic receptors; conditions: in vitro binding studies; cited from earlier work
[11] = tested on: benzodiazepine receptors; conditions: in vitro binding studies; cited from earlier work
[12] = tested on: beta adrenergic receptors; conditions: in vitro binding studies; cited from earlier work
[13] = biological target: α1 Receptor; assay: α1 receptor binding; conditions: read-out: α1 Receptor Binding Alpha1 (IC50)
[14] = biological target: T5, 5-HT5A (Homo sapiens, UniProt P47898); assay: 5-HT5A receptor binding; conditions: read-out: Serotonin Receptor Binding 5-HT5A (IC50)
T5 construct: host or cells: membrane preparations
T5 sequence (P47898 whole entry, species assumed): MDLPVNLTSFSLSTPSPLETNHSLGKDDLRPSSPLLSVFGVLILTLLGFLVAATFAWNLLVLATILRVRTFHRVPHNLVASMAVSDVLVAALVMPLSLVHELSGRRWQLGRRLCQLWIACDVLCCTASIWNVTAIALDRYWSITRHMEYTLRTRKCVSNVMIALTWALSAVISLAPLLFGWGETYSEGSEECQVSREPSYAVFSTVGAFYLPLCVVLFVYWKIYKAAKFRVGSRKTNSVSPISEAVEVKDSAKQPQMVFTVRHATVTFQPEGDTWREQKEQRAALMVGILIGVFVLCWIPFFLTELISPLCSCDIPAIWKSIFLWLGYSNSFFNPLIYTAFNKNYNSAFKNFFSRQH
Method: as §1

- IC50 [1]: 625 nM
- IC50 [2]: 716 nM
- IC50 [7]: 1870 nM
- IC50 [9]: 925 nM
- IC50 [13]: 306 nM
- IC50 [14]: 1560 nM
SMILES: CCc1nn(CCCN2CCN(c3cccc(Cl)c3)CC2)c(=O)n1CCOc1ccccc1 [Nefazodone]
- kinetics for dose and time (AUC and Cmax) ([3]; AUC and Cmax increasing more than proportionally with dose and upon multiple dosing): nonlinear kinetics
- half-life ([3]; in vivo): 2 to 4 h
- time of peak plasma concentrations ([3]; in vivo): about one
- absolute bioavailability ([3]; low and variable because of extensive metabolism): about 20%
- affinity for dopaminergic receptors [4]: no significant affinity
- affinity for 5-HT1A receptors [5]: no significant affinity
- action on alpha1-adrenergic receptors [6]: antagonize
- affinity for alpha2 adrenergic receptors [8]: no significant affinity
- affinity for cholinergic receptors [10]: no significant affinity
- affinity for benzodiazepine receptors [11]: no significant affinity
- affinity for beta adrenergic receptors [12]: no significant affinity
